Counter-ions that a name gives are not always drawn.
Tests used:
Format in all cases: cell-based
[1] = target: T1, α-1B adrenoreceptor (rat spleen) (Rattus norvegicus, UniProt P15823); experiment: Functional antagonism: inhibition of phenylephrine-induced contraction of rat spleen
T1 construct: from tissue; host or cells: rat spleen
T1 sequence (P15823 1-515): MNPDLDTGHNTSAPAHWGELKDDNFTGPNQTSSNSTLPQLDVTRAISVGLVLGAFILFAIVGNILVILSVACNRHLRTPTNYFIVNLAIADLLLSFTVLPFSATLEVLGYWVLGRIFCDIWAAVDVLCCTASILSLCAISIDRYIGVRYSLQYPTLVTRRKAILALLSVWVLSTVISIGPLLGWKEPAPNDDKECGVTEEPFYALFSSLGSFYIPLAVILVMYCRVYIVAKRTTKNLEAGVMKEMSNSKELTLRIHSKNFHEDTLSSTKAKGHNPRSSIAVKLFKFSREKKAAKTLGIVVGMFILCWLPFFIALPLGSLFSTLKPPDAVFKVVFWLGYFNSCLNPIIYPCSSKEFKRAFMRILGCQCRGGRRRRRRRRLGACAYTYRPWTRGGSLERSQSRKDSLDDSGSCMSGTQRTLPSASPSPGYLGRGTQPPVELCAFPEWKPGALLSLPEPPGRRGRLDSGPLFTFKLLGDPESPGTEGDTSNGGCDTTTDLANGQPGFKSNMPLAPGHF
Source text: (§1) Functional assays indicative of pharmacologically defined α-1 adrenoreceptors were used to further characterize compounds. Inhibition of phenylephrine (PE)-induced contraction of canine prostate smooth muscle can be correlated with α-1A adrenoreceptor activation. […] For each of these models, agonist dose response curves were repeated against increasing concentrations of test agent to derive a Schild plot [log ([…]) against log (molarity of test agent)] to determine the pA2.

[2] = target: T2, α-1A adrenoreceptor (canine prostate smooth muscle) (Canis lupus, UniProt A0A8I3NK63); experiment: Functional antagonism: inhibition of phenylephrine-induced contraction of canine prostate strips; conditions: Schild plot
T2 construct: antagonism of phenylephrine-induced contraction (pA2, Schild)
T2 sequence (A0A8I3NK63 1-466): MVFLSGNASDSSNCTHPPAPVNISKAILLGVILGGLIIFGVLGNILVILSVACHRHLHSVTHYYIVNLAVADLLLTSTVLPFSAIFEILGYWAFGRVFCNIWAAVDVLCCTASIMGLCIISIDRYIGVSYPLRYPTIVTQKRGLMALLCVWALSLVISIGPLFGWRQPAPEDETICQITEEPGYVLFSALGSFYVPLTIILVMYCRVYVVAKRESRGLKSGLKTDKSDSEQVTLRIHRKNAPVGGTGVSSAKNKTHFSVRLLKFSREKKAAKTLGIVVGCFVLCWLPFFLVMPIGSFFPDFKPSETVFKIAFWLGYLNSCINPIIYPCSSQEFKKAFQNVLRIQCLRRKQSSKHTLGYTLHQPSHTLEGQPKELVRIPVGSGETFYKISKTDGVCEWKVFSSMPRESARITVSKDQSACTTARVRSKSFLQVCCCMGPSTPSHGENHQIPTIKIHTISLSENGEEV
Source text: Canine prostate strips were used in vitro as previously described (Hieble, J. P., Boyce, Caine, M., Fed Proc., 45: 2609-2614 (1986)), to determine antagonist potencies phenylephrine-induced contractions.
as §1
Canine prostate strips were used in vitro as previously described (Hieble, J. P., Boyce, A. J. and Caine, M., Fed. Proc., 45: 2609-2614 (1986)), to determine antagonist potencies against phenylephrine-induced contractions.

[3] = target: T3, α-1 Adrenoceptors (Rat Aorta) (Rattus norvegicus, UniProt P23944); experiment: Functional antagonism at α-1 adrenoceptors, rat aorta
T3 construct: Rat Aorta; from tissue; host or cells: rat aorta
T3 sequence (P23944 1-561): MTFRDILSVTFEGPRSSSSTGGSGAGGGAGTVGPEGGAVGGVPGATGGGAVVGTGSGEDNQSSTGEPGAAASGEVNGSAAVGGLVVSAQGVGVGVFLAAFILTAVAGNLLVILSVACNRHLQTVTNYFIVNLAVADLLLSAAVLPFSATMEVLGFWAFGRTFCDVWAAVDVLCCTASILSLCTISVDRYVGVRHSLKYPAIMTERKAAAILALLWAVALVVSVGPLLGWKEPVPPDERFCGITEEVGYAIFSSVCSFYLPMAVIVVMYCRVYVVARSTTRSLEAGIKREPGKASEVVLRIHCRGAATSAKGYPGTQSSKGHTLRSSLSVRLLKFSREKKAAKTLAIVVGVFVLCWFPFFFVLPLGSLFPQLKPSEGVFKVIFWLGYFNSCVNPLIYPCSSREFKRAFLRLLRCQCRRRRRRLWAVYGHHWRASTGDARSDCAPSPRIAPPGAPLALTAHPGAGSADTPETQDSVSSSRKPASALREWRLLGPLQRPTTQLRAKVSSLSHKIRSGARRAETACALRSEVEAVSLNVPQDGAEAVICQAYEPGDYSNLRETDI
Outline: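 Phenylephrine dose-response curves for contraction were repeated against increasing test-agent concentrations. pA2 was derived by Schild plot [[…] vs log molarity of test agent].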

Row | SMILES | Kb [1] [nM] | In Vitro Characterization (pA2) Dog Prostate [2] | In Vitro Characterization (pA2) Rat Spleen ([1]; rat spleen, phenylephrine-induced contraction, Schild plot) | In Vitro Characterization (pA2) Rat Aorta [3]
1 | COc1cccc2c1[C@@H]1CCN(CCCCn3c(=O)[nH]c4c(sc5ccccc54)c3=O)C[C@H]1CO2 (relative stereo) [Example 87, 3-[4-((±)-trans-10-Methoxy-1,3,4,4a,5,10b-hexahydro-2H-[1]-benzopyrano[3,4-c]pyrido-3-yl)butyl]-[1]-benzthieno[3,2-d]pyrimidine-2,4(1H,3H)-dione hydrochloride] | 72.4 |  |  | 
2 | COc1cccc2c1[C@@H]1CCN(CCCCn3c(=O)[nH]c4c(sc5cccnc54)c3=O)C[C@H]1CO2 (relative stereo) [Example 88, 3-[4-((±)-trans-10-Methoxy-1,3,4,4a,5,10b-hexahydro-2H-[1]-benzopyrano[3,4-c]pyrido-3-yl)butyl]-pyrido[2',3':4,5]thieno[3,2-d]pyrimidine-2,4(1H,3H)-dione hydrochloride] | 72.4 | 8.09 |  | 
3 | COc1ccc2c(n1)sc1c(=O)n(CCCCN3C[C@@H]4COc5cccc(OC)c5[C@@H]4C3)c(=O)[nH]c12 [Example 33, hydrochloride] |  |  | 7.83 | 9.15

— patent US5891882A, “Benzopyranopyrrole and benzopyranopyridine α-1 adenergic compounds” (priority 1997, dated 1999)
